Source: doi:10.1101/2025.03.14.643404, “A Bivalent Molecular Glue Linking Lysine Acetyltransferases to Oncogene-induced Cell Death” (bioRxiv, 2025)

Legend:
[1] = test system: SUDHL5 cells; test: Cell viability, 72 h compound treatment (PrestoBlue), SUDHL5; type: cell-based, human; conditions: for effect of inhibitor co-treatment on TCIP3 cell killing: SUDHL5, constant 1 nM TCIP3 plus titrated inhibitor, 72 h
Protocol: Thirty thousand cells were seeded in 100 μl of media per well of a 96-well plate and treated with drug for the indicated times and doses. A resazurin-based indicator of cell health (PrestoBlue; P50200, Thermo Fisher) was added for 1.5 h at 37°C, at which point the fluorescence ratio at 560/590 nm was recorded (Tecan Spark). The background fluorescence was subtracted, and the signal was normalized to DMSO-treated cells. IC50 measurements on cell lines were calculated using at least three biological replicates (separate cell passages). Fit of dose–response curves to data and statistical analysis was performed using GraphPad PRISM using the four-parameter log(inhibitor) vs response function.

[2] = molecular target: p300^Q1083A (Homo sapiens, UniProt P41182+Q09472, Q1082A); test: TR-FRET binary displacement assay, p300 Q1083A bromodomain; type: binding; conditions: α = Kd binary/Kd ternary
Protocol: (§1) Drugs were digitally dispensed (Tecan D300e) into protein-containing wells, and the plate was allowed to incubate in the dark for 1 hour at room temperature. Emission at 490 nm (terbium) and 520 nm (FITC) was measured on a PHERAstar FS plate reader (BMG Labtech) upon excitation with 337 nm. The ratio of signal at 520 nm to 490 nm was calculated and normalized to DMSO-treated protein.

[3] = molecular target: p300^Q1083R (Homo sapiens, UniProt P41182+Q09472, Q1082R); test: TR-FRET binary displacement assay, p300 Q1083R bromodomain; type: binding; conditions: α = Kd binary/Kd ternary
Protocol: as §1

[4] = test system: c-MYC mRNA; test: RT-qPCR of c-MYC transcripts in SUDHL5; type: cell-based, human; conditions: for effect of competitor co-treatment on c-MYC mRNA repression by TCIP3: SUDHL5, 10 nM TCIP3 plus 500 nM inhibitor, 1 h; for c-MYC repression compared with TCIP3: SUDHL5, matched concentrations, transcript or proteomic level
Protocol: Cells were plated at 1M/mL and harvested in TRIsure (Bioline 38033). RNA was extracted using Direct-zol RNA MicroPrep columns (Zymo R2062) treated with DNAseI. cDNA was prepared (Meridian Bioscience BIO-65054) and used for qPCR (Meridian Bioscience BIO-94050) using an AppliedBiosystems QuantStudio 6Pro. Primer sequences were the following:
• c-MYC fwd: […]; • c-MYC rev: […]; • GAPDH fwd: […]; • GAPDH rev: […].

[5] = molecular target: T1, BCL6^BTB (Homo sapiens, UniProt P41182); test: BCL6BTB nanoBRET probe displacement in HEK293T; type: cell-based; conditions: compared with TCIP3
T1 construct: human BCL6 (Uniprot: P41182; aa1–129); expressed in transfected cells; host or cells: HEK293T
Protocol: The construct for NanoLuciferase(NanoLuc)-tagged BCL6^BTB was created as follows in a lentiviral construct: an N-terminal NanoLuc (subcloned from pNLSF-1, Promega N1351) was fused to the BTB domain of human BCL6 (Uniprot: P41182; aa1–129) with an internal GSG linker followed by a V5 tag. HEK293T cells were plated at a density of 6×10^5 cells/mL in 2 mL of DMEM/well in a tissue culture treated 6-well plate and were allowed to incubate overnight at 37 °C. The next day, each well of cells was transfected with 2 ug of NanoLuc-BCL6^BTB (renamed pNSG218) using Lipofectamine 2000. The transfected cells were allowed to incubate overnight at 37 °C. The following day, the transfected cells were trypsizined, washed with PBS, counted with Trypan Blue, and brought to a final concentration of 1.25×10^5 cells/mL in Fluorobrite DMEM (Gibco A1896701) supplemented with 10% FBS. 1 uM TNL-15 probe was added to the cells before plating 5000 cells per well in a volume of 40 uL per well in a 384-well plate. […] Data was then obtained using a PheraStar FS plate reader (BMG Labtech) measuring luminescence with 520-BP and 450-BP filters. […]
For all NanoBRET assays, a dose-response curve with 3 technical replicates was constructed for each compound, and corrected BRET ratios were calculated according to manufacturer assay protocol (Promega TM439). […]

[6] = test system: BCL6-repressed GFP reporter; test: BCL6 reporter assay (BCL6-repressed GFP) in K422 cells; type: cell-based, human; conditions: 24 h
Protocol: KARPAS422 cells were lentivirally transduced with a construct containing the reporter. Description of the reporter construct has been published previously. After selection, cells were plated and treated with indicated amount of compound for 24 hours. Cells were washed in 2.5% FBS/PBS, stained with 1:250 v/v of 7-AAD (BD 559925) to distinguish live from dead cells, and harvested for flow cytometry on a BD Accuri. Given the polyclonal population after transduction, the area under the curve of the histogram representing FITC signal across all live cells was calculated as an integrative measure of total GFP signal. A GFP-positive gate two standard deviations from the mean was drawn from non-transduced cells and the area past a constant threshold was calculated and normalized to the signal from cells treated with DMSO.

[7] = test system: SUDHL5 cells; test: Global proteome profiling in SUDHL5, whole proteome; type: cell-based, human; conditions: SUDHL5, 10 nM, 6 and 24 hours
Protocol: SUDHL5 cells (6M cells in 6 mL RPMI-1640 media supplemented with 10% FBS and 1x pen-strep) were treated with 0.1% DMSO, 10 nM TCIP3, 10 nM Neg1, 10 nM Neg2, or 250 nM dCBP1 (1000x stocks in DMSO for final 0.1% DMSO concentration) in 3 biologically independent replicates. The cells were washed twice with TBS (50 mM Tris, pH 8.5, and 150 mM NaCl) and then stored at −80 °C until use.
Lysis was performed by first thermally denaturing the samples in residual wash buffer for 5 min at 95 °C. Fresh Lysis Buffer (8 M urea, 150 mM NaCl, and 100 mM HEPES, pH 8.0, in MS-grade water) was then added, and the lysates were homogenized using needle ultrasonication and then normalized to 30 μg of 2 mg/mL by diluting with Lysis Buffer via a Bradford protein concentration assay (Bio-Rad 5000006) in technical duplicates. […]
Samples were then desalted using SOLAμ SPE HRP Peptide Desalting columns (Thermo 60209–001) with a Positive Pressure Manifold and all MS-grade reagents. […] The samples were then reconstituted in 0.1% FA in water and then analyzed by LC-MS/MS (see below).
The reconstituted desalted peptides were then analyzed using a nanoElute 2 UHPLC (Bruker Daltonics, Bremen, Germany) coupled to a timsTOF HT (Bruker Daltonics, Bremen, Germany) via a CaptiveSpray nano-electrospray source. […]

cooperativity α [2]	cooperativity α [3]	cellular binding to BCL6 BTB [5]	IC50 ([1]; Homo sapiens, SU-DHL-5, SUDHL5, 72 h, read-out: IC50 cell viability / antiproliferation) [nM]	SMILES	effect of inhibitor co-treatment on TCIP3 cell killing [1]	effect of competitor co-treatment on c-MYC mRNA repression by TCIP3 [4]	c-MYC repression compared with TCIP3 [4]	activation of GFP expression [6]	proteome changes relative to DMSO [7]
~ 0.88	~ 1.0	–	–	CNC(=O)N1CCc2c(c(N3CCCc4cc(-c5cnn(C)c5)c(C(F)F)cc43)nn2C2CCOCC2)C1 [GNE-781]	buffered the effects of TCIP3 on cell viability	restored c-MYC levels to those observed with GNE-781 treatment alone	Neither GNE-781, dCBP-1, NEG1, NEG2, nor the BCL6^BTB inhibitor BI-3812 produced comparable c-MYC repression	–	–
–	–	–	–	CNC(=O)COc1cc2cc(Nc3nc(N4CCC(C(=O)N(C)C)CC4)ncc3Cl)cc(OC)c2n(C)c1=O [BI-3812]	buffered the effects of TCIP3 on cell viability	almost completely restored c-MYC levels to baseline	Neither GNE-781, dCBP-1, NEG1, NEG2, nor the BCL6^BTB inhibitor BI-3812 produced comparable c-MYC repression	–	–
–	–	potent binders	2100	CNC(=O)COc1cc2cc(Nc3nc(N4CCC(C(=O)N5CCN(CCC(=O)N6CCC(n7nc(N8CCCc9cc(-c%10cnn(C)c%10)c(C(F)F)cc98)c8c7CCN(C(=O)c7ccccc7)C8)CC6)CC5)CC4)ncc3Cl)cc(OC)c2n(C)c1=O [NEG2]	–	–	Neither GNE-781, dCBP-1, NEG1, NEG2, nor the BCL6^BTB inhibitor BI-3812 produced comparable c-MYC repression	Neither NEG1 nor NEG2 activated GFP expression	no significant changes relative to DMSO
